Experimental data reported in patent publication US20230087950A1, “METHOD FOR SYNTHESIZING DOPA OLIGOPEPTIDE INTERMEDIATE AND USE, COMPOSITION AND PREPARATION THEREOF” (HAINAN UNIVERSITY, priority 2019, published 2023).
“Also recorded” adds a separate entry of the source. Where a SMILES comes first, the peptide text is derived from it. [ ]: non-standard residue; d: D form. The star is where a group is joined. Dopa = N[C@@H](Cc1ccc(O)c(O)c1)C(=O)O; Stearoyl = CCCCCCCCCCCCCCCCCC(=O)*; Palmitoyl = CCCCCCCCCCCCCCCC(=O)*; Myristoyl = CCCCCCCCCCCCCC(=O)*

Assays:
[1] = rat liver homogenate; cited from earlier work
[2] = Appearance and stability of gels by turning the tubes upside down; format: physicochemical; settings: tubes turned upside down, standing for long time
Text: The appearance and stability of gels formed from FDD-16 was studied by turning the tubes upside down and. […] This shed lights on future druggability study of FDD-16 using MeOH, ethanol, THF, DMSO and DMF as solvents. See FIG. 1 for gel formation experiments.

[3] = Gelation tests of L-DOPA-containing lipodipeptides in organic solvent/water; format: physicochemical; settings: for Gel formation: organic solvents (MeOH, ethanol, toluene, THF, DMSO, DMF) with water; for Gel formation / Range of gelation concentrations: result in words
Procedure: (§1) 1) Six samples of 40 mg FDD-16 was added into six 2 ml centrifuge tubes, followed by addition of 1 ml of respective organic solvents. Mother solutions were prepared using MeOH, ethanol, toluene, THF, DMSO, and DMF, respectively.
(§2) 2) Aliquots of 50 μl of the above mother solutions were added, respectively, to nine 2 ml centrifuge tubes, followed by addition of organic solvents (MeOH, ethanol, toluene, THF, DMSO, DMF, respectively). The volume ratios of the organic solvent to distilled water were 1:9, 2:8, 3:7, 4:6, 5:5, 6:4, 7:3, 8:2 and 9:1, respectively. Tests of each solvent ratio were repeated 3 times. Gel formation rates and the corresponding sample concentrations were marked down.
The experiments were performed like those of FDD-16.

[4] = in vivo; cited from earlier work
[5] = Gelation tests of conjugates of fatty acid and L-DOPA in organic solvent/water; format: physicochemical; settings: Table 3
Procedure: as §1, §2
Tests were performed according to the tests done for FDD-16.

Compound | Gelation concentration ([3]; DMF/water, Table 2) | Gelation concentration ([3]; DMSO/water, Table 2) | Gelation concentration ([3]; Ethanol/water, Table 1) | Gelation concentration ([3]; MeOH/water, Table 1) | Range of gelation concentrations [3] | Gel formation [3] | further results
N[C@@H](Cc1ccc(O)c(O)c1)C(=O)N[C@@H](CC(=O)O)C(=O)O [H-DOPA-Asp-OH] (H-[Dopa]-Asp-OH) | – | – | – | – | – | – | half-life [1]: about 174 min
N[C@@H](Cc1ccc(O)c(O)c1)C(=O)O [L-DOPA] | – | – | – | – | – | – | bioavailability [4]: 1-3%; time of effective blood drug concentration [4]: 50 min
CSCC[C@H](NC(=O)[C@@H](N)Cc1ccc(O)c(O)c1)C(=O)O [H-DOPA-Met-OH] (H-[Dopa]-Met-OH) | – | – | – | – | – | – | half-life [1]: 16 min
CCCCCCCCCCCCCCCCCC(=O)N[C@@H](Cc1ccc(O)c(O)c1)C(=O)O [FD-18] | – | – | – | – | – | – | Gelation concentration ([5]; Ethanol/water): 10~14 g/mL; Gelation concentration ([5]; MeOH/water): 10~15 g/mL

More lines, main results first:

Gelation concentration ([3]; DMF/water, Table 2) | Gelation concentration ([3]; DMSO/water, Table 2) | Gelation concentration ([3]; Ethanol/water, Table 1) | Gelation concentration ([3]; MeOH/water, Table 1) | Range of gelation concentrations [3] | Compound | Gel formation [3] | further results
6~22 g/mL | 6~28 g/mL | 6~24 g/mL | 6~26 g/mL | wide range of gelation concentrations | CCCCCCCCCCCCCCCC(=O)N[C@@H](Cc1ccc(O)c(O)c1)C(=O)N[C@@H](CC(=O)O)C(=O)O [FDD-16] (Palmitoyl-[Dopa]-Asp-OH) | could form stable gels; also recorded: formed gels in MeOH, ethanol, THF, DMSO and DMF; also recorded: can form stable gels | Appearance and stability of gel [2]: in good condition and remained at the bottom while standing for long time; Gelation concentration ([3]; THF/water, Table 2): 8~12 g/mL
14~26 g/mL | 16~30 g/mL | 12~26 g/mL | 10~16 g/mL | narrower than those of FDD-16 and FDD-14 | CCCCCCCCCCCCCCCCCC(=O)N[C@@H](Cc1ccc(O)c(O)c1)C(=O)N[C@@H](CC(=O)O)C(=O)O [FDD-18] (Stearoyl-[Dopa]-Asp-OH) | could form stable gels; also recorded: formed gels in MeOH, ethanol, DMSO and DMF; also recorded: higher possibilities to form gels; also recorded: can form stable gels | –
6~20 g/mL | 8~22 g/mL | 8~20 g/mL | 8~22 g/mL | wide range of gelation concentrations | CCCCCCCCCCCCCC(=O)N[C@@H](Cc1ccc(O)c(O)c1)C(=O)N[C@@H](CC(=O)O)C(=O)O [FDD-14] (Myristoyl-[Dopa]-Asp-OH) | could form stable gels; also recorded: formed gels in MeOH, ethanol, THF, DMSO and DMF; also recorded: higher possibilities to form gels; also recorded: can form stable gels | Gelation concentration ([3]; THF/water, Table 2): 6~8 g/mL
